Experimental data taken from patent publication US8779188B2, “Process for the production of L-carnitine tartrate” (Lonza Ltd., priority 2010, dated 2014).

Experiments:
[1] = Solubility of L-carnitine tartrate in ethanol in relation to the water content of the ethanol (FIG. 1); type: physicochemical; details: ethanol comprising less than 5% water / no or low amounts of water
Excerpt: Without being bound to theory, it is assumed that the strong improvements of the inventive process are associated with the low solubility of L-carnitine tartrate in ethanol comprising no water or only low amounts of water. […] The relationship of L-carnitine tartrate solubility to the water content of ethanol is shown in the scheme of FIG. 1. […] Thereby, high yields are obtained even when avoiding extreme temperatures for heating and cooling.

[2] = cited from earlier work

| Compound | solubility in ethanol ([1]; L-tartrate) | solubility in ethanol ([1]; listed as carnitine tartrate, L-tartrate) | stability during storage ([2]; normal air moisture, disclosed in EP 0 434 088 A1) | solubility in ethanol [1] | hygroscopicity ([2]; pure carnitine) |
| --- | --- | --- | --- | --- | --- |
| C[N+](C)(C)C[C@H](O)CC(=O)[O-].O=C(O)C(O)C(O)C(=O)O [L-carnitine tartrate, L-carnitine L-tartrate] | decreased dramatically | very low | stable |  |  |
| C[N+](C)(C)CC(O)CC(=O)[O-] [L-carnitine, 3-hydroxy-4-trimethylammonio-butanoate] |  |  |  | almost insoluble | highly hygroscopic |
